{
  "source": "paper PMC11535186",
  "about": "“Exploring the Anti-Inflammatory Potential of Ajuga integrifolia Leaves Extract: In Vitro Dual Inhibition of Cyclooxygenase and Lipoxygenase Enzymes” (Advances in Pharmacological and Pharmaceutical Sciences, 2024)",
  "target": "5-LOX (Glycine max, UniProt P08170)",
  "sequence (P08170 whole entry)": "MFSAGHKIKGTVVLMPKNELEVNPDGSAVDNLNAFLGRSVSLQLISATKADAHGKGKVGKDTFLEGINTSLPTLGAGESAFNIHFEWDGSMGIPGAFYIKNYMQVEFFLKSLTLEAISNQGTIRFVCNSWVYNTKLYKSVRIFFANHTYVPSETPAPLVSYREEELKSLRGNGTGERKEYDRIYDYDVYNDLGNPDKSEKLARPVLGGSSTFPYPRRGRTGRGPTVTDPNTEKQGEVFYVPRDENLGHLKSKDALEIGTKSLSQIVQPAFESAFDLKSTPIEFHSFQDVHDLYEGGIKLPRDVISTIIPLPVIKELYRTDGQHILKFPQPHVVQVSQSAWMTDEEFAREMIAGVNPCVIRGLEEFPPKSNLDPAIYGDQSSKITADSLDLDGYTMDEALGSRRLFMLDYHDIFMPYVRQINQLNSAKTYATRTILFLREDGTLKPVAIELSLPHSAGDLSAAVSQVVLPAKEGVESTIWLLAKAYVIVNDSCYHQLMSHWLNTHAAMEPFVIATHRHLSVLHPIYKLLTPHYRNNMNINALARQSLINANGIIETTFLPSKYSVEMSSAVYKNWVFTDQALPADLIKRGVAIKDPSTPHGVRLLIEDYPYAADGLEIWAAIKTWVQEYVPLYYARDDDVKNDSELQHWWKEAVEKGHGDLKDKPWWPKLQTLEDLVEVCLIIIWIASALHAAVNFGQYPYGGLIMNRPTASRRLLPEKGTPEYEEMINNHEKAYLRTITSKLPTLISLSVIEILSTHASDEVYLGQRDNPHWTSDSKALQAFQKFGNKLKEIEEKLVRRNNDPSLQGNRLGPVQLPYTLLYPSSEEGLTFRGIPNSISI",
  "experiment": "5-LOX inhibitory assay (linoleic acid substrate, 234 nm)",
  "type": "biochemical",
  "details": "read-out: % inhibition 5-LOX",
  "experimental": "The inhibition of LOX was evaluated according to the method described by Malterud with slight modifications. A 100 μL enzyme solution was prepared in boric acid buffer (0.2 M; pH 9.0). To assess the inhibitory effect, 25 μL of each test extract (20, 40, 60, 80, and 100 μg/mL) was added to the enzyme solution. The mixture was then incubated at room temperature for 3 min. […] IC50 values were calculated by regression analysis using Microsoft Excel involving five concentrations. The percentage inhibition of enzyme activity and IC50 values are presented as the mean values ± SD.",
  "data": [
    {"smiles": "CC(c1cc2ccccc2s1)N(O)C(N)=O", "note": "(centres unmarked) [Zileuton]", "values": [
      {"measurement": "inhibition at 20 µg/mL", "result": 26.1, "unit": "%"},
      {"measurement": "inhibition at 40 µg/mL", "result": 47, "unit": "%"},
      {"measurement": "inhibition at 60 µg/mL", "result": 51.9, "unit": "%"},
      {"measurement": "inhibition at 80 µg/mL", "result": 64.2, "unit": "%"},
      {"measurement": "inhibition at 100 µg/mL", "result": 70.4, "unit": "%"}
    ]}
  ]
}
